Results published in article PMC3004914, “Classification of Drugs Based on Properties of Sodium Channel Inhibition: A Comparative Automated Patch-Clamp Study” (PLoS ONE, 2010).
Read-outs that look alike come from different tables or passages of the source.

What was measured:
sodium channels [1] = conditions: cited from earlier work
sodium channels [2] = conditions: averaged literature data, cited from earlier work
[3] = target: T1, rNav1.2 sodium channels (HEK-293 cells) (Rattus norvegicus, UniProt P04775); test: 5 Hz train protocol, QPatch automated patch-clamp; assay type: cell-based;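 on UD (use-dependence of the inhibition): UD = (A3/A4)/(A1/A2) as ratios of peak amplitudes from Figure 1A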
How it was run: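 rNav1.2 in stable HEK-293 cells, QPatch whole-cell; 5 Hz trains of five pulses from −90 to −10 mV, repeated every 20 s; 10 control trains, 10 with drug, then washout. Inhibition of peak current at a single concentration gave IC50; reversibility, use-dependence and τoff also derived.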

[4] = target: T1, rNav1.2 sodium channels (HEK-293 cells); test: steady-state inactivation protocol (availability curves), QPatch automated patch-clamp; assay type: cell-based; conditions: for Ki / Kd: 300 µM
How it was run: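 HEK-293 cells stably expressing rat Nav1.2, recorded by automated patch clamp in extracellular solution pH 7.3 containing CdCl2 and TEA. Availability measured with 400 ms pre-pulses from −150 to −30 mV, then a 10 ms test pulse to −10 mV. Kr, Ki (four-state model) and Kr/Ki state-dependence derived from inhibition and ΔV1/2.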

[5] = human plasma, cited from earlier work

T1 sequence (P04775 whole entry): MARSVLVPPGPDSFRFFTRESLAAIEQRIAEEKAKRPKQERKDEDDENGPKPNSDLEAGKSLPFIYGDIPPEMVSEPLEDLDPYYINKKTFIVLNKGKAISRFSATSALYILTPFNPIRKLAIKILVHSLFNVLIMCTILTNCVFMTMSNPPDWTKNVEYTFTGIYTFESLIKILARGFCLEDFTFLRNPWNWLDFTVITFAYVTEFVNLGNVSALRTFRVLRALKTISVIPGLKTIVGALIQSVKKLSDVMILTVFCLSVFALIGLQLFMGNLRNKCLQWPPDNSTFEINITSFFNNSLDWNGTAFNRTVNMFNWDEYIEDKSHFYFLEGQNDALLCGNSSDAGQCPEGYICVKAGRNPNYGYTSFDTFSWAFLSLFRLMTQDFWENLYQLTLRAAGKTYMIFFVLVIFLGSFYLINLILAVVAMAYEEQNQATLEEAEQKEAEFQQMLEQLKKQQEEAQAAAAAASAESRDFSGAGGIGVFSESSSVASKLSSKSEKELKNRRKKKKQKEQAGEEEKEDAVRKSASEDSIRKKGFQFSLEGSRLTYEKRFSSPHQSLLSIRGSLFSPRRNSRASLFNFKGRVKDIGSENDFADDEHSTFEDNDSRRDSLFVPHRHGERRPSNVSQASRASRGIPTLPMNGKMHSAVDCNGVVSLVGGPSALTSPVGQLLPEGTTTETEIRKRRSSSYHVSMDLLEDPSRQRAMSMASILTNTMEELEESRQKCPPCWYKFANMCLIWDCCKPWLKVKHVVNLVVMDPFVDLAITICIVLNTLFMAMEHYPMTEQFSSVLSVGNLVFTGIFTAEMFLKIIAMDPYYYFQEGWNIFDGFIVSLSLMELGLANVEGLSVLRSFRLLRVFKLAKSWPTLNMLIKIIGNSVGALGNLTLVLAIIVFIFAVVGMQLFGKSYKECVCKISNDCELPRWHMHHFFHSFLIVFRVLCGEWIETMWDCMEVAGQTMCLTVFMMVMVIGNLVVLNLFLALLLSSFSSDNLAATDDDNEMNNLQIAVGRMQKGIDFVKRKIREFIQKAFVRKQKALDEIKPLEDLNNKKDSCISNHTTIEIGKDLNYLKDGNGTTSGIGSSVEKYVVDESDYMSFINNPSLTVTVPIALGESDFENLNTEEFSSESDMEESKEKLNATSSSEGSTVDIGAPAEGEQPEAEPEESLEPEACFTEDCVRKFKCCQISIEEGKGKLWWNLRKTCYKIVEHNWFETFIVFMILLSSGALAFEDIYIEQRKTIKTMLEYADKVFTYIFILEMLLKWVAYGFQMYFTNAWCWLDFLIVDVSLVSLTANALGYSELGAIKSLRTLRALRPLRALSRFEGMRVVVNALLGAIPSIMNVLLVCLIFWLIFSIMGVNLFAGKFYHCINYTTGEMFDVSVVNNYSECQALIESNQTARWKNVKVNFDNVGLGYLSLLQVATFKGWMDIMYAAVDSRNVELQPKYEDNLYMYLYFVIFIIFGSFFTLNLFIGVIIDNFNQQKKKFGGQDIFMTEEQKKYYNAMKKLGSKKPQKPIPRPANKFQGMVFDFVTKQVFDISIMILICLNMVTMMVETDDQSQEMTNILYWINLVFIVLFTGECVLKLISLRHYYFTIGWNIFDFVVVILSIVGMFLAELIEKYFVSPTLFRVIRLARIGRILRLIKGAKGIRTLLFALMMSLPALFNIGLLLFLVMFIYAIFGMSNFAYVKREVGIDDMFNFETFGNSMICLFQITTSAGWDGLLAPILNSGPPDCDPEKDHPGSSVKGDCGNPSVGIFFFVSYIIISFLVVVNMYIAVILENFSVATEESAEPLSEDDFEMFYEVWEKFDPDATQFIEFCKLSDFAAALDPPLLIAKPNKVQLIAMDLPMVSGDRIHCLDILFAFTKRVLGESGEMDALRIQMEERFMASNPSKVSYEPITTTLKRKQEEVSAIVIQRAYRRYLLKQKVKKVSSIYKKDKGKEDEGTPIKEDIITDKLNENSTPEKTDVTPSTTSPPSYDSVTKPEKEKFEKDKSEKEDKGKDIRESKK

In the case of `Nc1nnc(-c2cccc(Cl)c2Cl)c(N)n1` [LTG, Lamotrigine], the “criterion of at least 60% inhibition at 10 µM concentration” value (sodium channels [1]) is listed as “failed to fulfill this criteria”, the Ki (sodium channels [2]; read-out: Ki−Lit) is listed as 15.1 µM and the Kd (sodium channels [2]; read-out: Kr−Lit) is listed as 1560 µM. The τoff ([3]; 300 μM) was 18.1 s, the τon ([3]; 300 μM, 3 s assigned where too short to be resolved) was 8.19 s and the “UD (use-dependence of the inhibition)” value ([3]; 300 μM, 5 Hz train) was 0.97. For the same compound, the “Rev (reversibility)” value ([3]; 300 μM, Rev = A5/A1 after washout) was 0.85, the potency estimated from few doses ([3]; HEK293, read-out: IC50, calculated from Inh at single concentration 300 μM, −90 mV, 5 Hz train) was 905 µM and the inhibition at 300 µM ([3]; HEK293, read-out: Inh (inhibited fraction)) was 25%. For the same compound, the “ΔV1/2 (shift of availability curve)” value ([4]; 300 μM) was −10.3 mV, the inhibition at 300 µM ([4]; HEK293, read-out: Inh (inhibited fraction) at holding potential −150 mV) was 12% and the Ki ([4]; arithmetic mean, read-out: Ki-Kapp arith) was 40.4 µM. For the same compound, the Ki ([4]; arithmetic mean, read-out: Ki-ΔV1/2 arith) was 37.3 µM, the Kd ([4]; arithmetic mean, read-out: Kr arith) was 2330 µM and the Kd ([4]; geometric mean, from Inh at −150 mV, read-out: Kr (resting state affinity)) was 2270 µM. The Ki ([4]; geometric mean, from apparent affinity, read-out: Ki−Kapp (inactivated state affinity)) was 36.7 µM, the Ki ([4]; geometric mean, from shift of availability curve, read-out: Ki−ΔV1/2 (inactivated state affinity)) was 31.3 µM and the plasma conc. ([5]; as printed in each cell) was 2.5 [44] µg/ml. The plasma conc. ([5]; as printed in the µg/ml cell) was 9.762 µM.
